Experimental data reported in the NIST ThermoML archive (doi:10.1021/je500431h).
± gives the expanded uncertainty stated by the source.

Details: 101 kPa, Liquid; for electrical conductivity: conductivity meter LF 340 and a standard conductivity cell TetraCon; for mass density: Pycnometric method

C=CCn1cc[n+](CCOC)c1.O=S(=O)([N-]S(=O)(=O)C(F)(F)F)C(F)(F)F
Details	electrical conductivity [S/m]	mass density [kg/m3]	viscosity [mPa·s]
308.7 K	0.546 ± 0.033	–	–
309 K	–	1437 ± 2.2	23.7 ± 1
313.3 K	0.627 ± 0.038	–	–
314 K	–	1432.3 ± 2.2	20.3 ± 0.9
317 K	–	1429.6 ± 2.2	17.8 ± 0.8
318.1 K	0.72 ± 0.043	–	–
323.3 K	0.828 ± 0.05	–	–
323.5 K	–	1423.5 ± 2.2	14.6 ± 0.6
327.9 K	0.935 ± 0.056	–	–
328 K	–	1419.4 ± 2.2	13.1 ± 0.6
332.9 K	1.06 ± 0.063	–	–
334 K	–	1413.9 ± 2.2	11.2 ± 0.5
337.6 K	1.18 ± 0.071	–	–
338.5 K	–	1409.9 ± 2.2	10 ± 0.4
343 K	1.33 ± 0.08	–	–
344 K	–	1404.9 ± 2.2	8.8 ± 0.4
348 K	–	1401.3 ± 2.2	8.2 ± 0.4
348.1 K	1.48 ± 0.089	–	–
352 K	1.6 ± 0.096	–	–
354.2 K	–	1395.8 ± 2.2	7 ± 0.3
